Source: US9884806B2, “Cyclic vinylogous amides as bromodomain inhibitors” (ICAHN SCHOOL OF MEDICINE AT MOUNT SINAI, priority 2013, dated 2018)

How the values were obtained:
BRD4_2 = target: T1, BRD4_2 (Homo sapiens, UniProt O60885); assay: Fluorescence anisotropy binding assay (competition with FITC-labeled MS417 probe), BRD4_2; details: FITC-MS417 probe 80 nM, PBS pH 7.4, 1 hour, 25° C.
T1 construct: contains two tandem bromodomains (BrD1 and BrD2)

[1] = target: T2, first bromodomain (BrD1) of human BRD4 (Homo sapiens, UniProt O60885); assay: Fluorescence anisotropy binding assay (competition with FITC-labeled MS417 probe); details: FITC-MS417 probe 80 nM, PBS pH 7.4, 1 hour, 25° C., read-out: BRD4_1 IC50
T2 construct: the first bromodomain (BrD1) of human BRD4; poly-His (cleaved yes); made in house
Outline: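 BRD4 BrD1 (His tag removed by thrombin) at 0.25 to 1 μM competed against 80 nM FITC-labeled MS417 in PBS pH 7.4. Anisotropy read after 1 hour at 25° C. Ki derived from fitted IC50 by Nikolovska-Coleska-corrected Cheng-Prusoff equation, one-site competitive model.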

SMILES	IC50 (BRD4_2)	melting point	IC50 [1]
CC1=C(Nc2ccc(NC(=O)C3CCCCC3)cc2Cl)CCCC1=O [Example 05-49, N-(3-chloro-4-((2-methyl-3-oxocyclohex-1-en-1-yl)amino)phenyl)-cyclohexanecarboxamide]	1 to 10 µM	248 to 250 °C	< 1 µM
CC1=C(Nc2cccc(NC(=O)C3CCCCC3)c2Cl)CCCC1=O [Example 05-51, N-(2-chloro-3-((2-methyl-3-oxocyclohex-1-en-1-yl)amino)phenyl)-cyclohexanecarboxamide]	> 10 µM	205 to 208 °C	1 to 10 µM
CC1=C(Nc2cccc(NC(=O)c3cccc4ccccc34)c2Cl)CCCC1=O [Example 05-52, N-(2-chloro-3-((2-methyl-3-oxocyclohex-1-en-1-yl)amino)phenyl)-1-naphthamide]	1 to 10 µM	178 to 180 °C	< 1 µM
CC1=C(Nc2cc(NS(C)(=O)=O)ccc2Cl)CCC1=O [Example 05-53, N-(4-chloro-3-((2-methyl-3-oxocyclopent-1-en-1-yl)amino)-phenyl)-methanesulfonamide]	1 to 10 µM	213 to 215 °C	1 to 10 µM
CC1=C(Nc2cc(NS(=O)(=O)Cc3ccccc3)ccc2Cl)CCC1=O [Example 05-54, N-(4-chloro-3-((2-methyl-3-oxocyclopent-1-en-1-yl)amino)phenyl)-1-phenylmethanesulfonamide]	< 1 µM	196 to 198 °C	< 1 µM
CC1=C(Nc2cc(NS(=O)(=O)C3CCCCC3)ccc2Cl)CCC1=O [Example 05-55, N-(4-chloro-3-((2-methyl-3-oxocyclopent-1-en-1-yl)amino)phenyl)-cyclohexanesulfonamide]	1 to 10 µM	158 to 160 °C	< 1 µM
CC1=C(Nc2cc(NS(=O)(=O)c3ccccc3F)ccc2Cl)CCC1=O [Example 05-58, N-(4-chloro-3-((2-methyl-3-oxocyclopent-1-en-1-yl)amino)phenyl)-2-fluorobenzenesulfonamide]	< 1 µM	215 to 217 °C	< 1 µM
CC1=C(Nc2cc(NS(=O)(=O)c3ccccc3C#N)ccc2Cl)CCC1=O [Example 05-59, N-(4-chloro-3-((2-methyl-3-oxocyclopent-1-en-1-yl)amino)phenyl)-2-cyanobenzenesulfonamide]	< 1 µM	235 to 238 °C	< 1 µM
COc1ccccc1S(=O)(=O)Nc1ccc(Cl)c(NC2=C(C)C(=O)CC2)c1 [Example 05-60, N-(4-chloro-3-((2-methyl-3-oxocyclopent-1-en-1-yl)amino)phenyl)-2-methoxybenzenesulfonamide]	< 1 µM	198 to 200 °C	< 1 µM
CC1=C(Nc2cc(NS(=O)(=O)N3CCCCC3)ccc2Cl)CCC1=O [Example 05-61, N-(4-chloro-3-((2-methyl-3-oxocyclopent-1-en-1-yl)amino)phenyl)-piperidine-1-sulfonamide]	< 1 µM	78 to 80 °C	< 1 µM
CC1=C(Nc2cc(NS(=O)(=O)N3CCOCC3)ccc2Cl)CCC1=O [Example 05-62, N-(4-chloro-3-((2-methyl-3-oxocyclopent-1-en-1-yl)amino)phenyl)-morpholine-4-sulfonamide]	1 to 10 µM	60 to 67 °C	< 1 µM
CC1=C(Nc2ccc(NS(=O)(=O)c3ccccc3C)cc2Cl)CCC1=O [Example 05-63, N-(3-chloro-4-((2-methyl-3-oxocyclopent-1-en-1-yl)amino)phenyl)-2-methylbenzenesulfonamide]	1 to 10 µM	215 to 218 °C	< 1 µM
CC1=C(Nc2ccc(NS(=O)(=O)C3CCCCC3)cc2Cl)CCC1=O [Example 05-64, N-(3-chloro-4-((2-methyl-3-oxocyclopent-1-en-1-yl)amino)phenyl)-cyclohexanesulfonamide]	1 to 10 µM	210 to 213 °C	< 1 µM
CC1=C(Nc2cccc(NS(=O)(=O)c3ccccc3C)c2Cl)CCC1=O [Example 05-65, N-(2-chloro-3-((2-methyl-3-oxocyclopent-1-en-1-yl)amino)phenyl)-2-methylbenzenesulfonamide]	1 to 10 µM	75 to 77 °C	< 1 µM
CC1=C(Nc2cc(NS(=O)(=O)C3CCCCC3)ccc2Cl)CCCC1=O [Example 05-67, N-(4-chloro-3-((2-methyl-3-oxocyclohex-1-en-1-yl)amino)phenyl)-cyclohexanesulfonamide]	< 1 µM	215 to 217 °C	< 1 µM
CC1=C(Nc2ccc(NS(=O)(=O)C3CCCCC3)cc2Cl)CCCC1=O [Example 05-69, N-(3-chloro-4-((2-methyl-3-oxocyclohex-1-en-1-yl)amino)phenyl)-cyclohexanesulfonamide]	1 to 10 µM	230 to 232 °C	< 1 µM
CC1=C(Nc2cc(NCc3ccccc3C)ccc2Cl)CCCC1=O [Example 05-72, 3-((2-chloro-5-((2-methylbenzyl)amino)phenyl)amino)-2-methylcyclohex-2-enone]	< 1 µM	158 to 160 °C	< 1 µM
CC1=C(Nc2cc(NCCc3ccccc3C)ccc2Cl)CCCC1=O [Example 05-73, 3-((2-chloro-5-((2-methylphenethyl)amino)phenyl)amino)-2-methylcyclohex-2-enone]	1 to 10 µM	85 to 87 °C	1 to 10 µM
CC1=C(Nc2cc(NCc3ccccc3F)ccc2Cl)CCCC1=O [Example 05-74, 3-((2-chloro-5-((2-fluorobenzyl)amino)phenyl)amino)-2-methylcyclohex-2-enone]	< 1 µM	103 to 105 °C	< 1 µM
CC1=C(Nc2cc(NCc3cccc(F)c3C)ccc2Cl)CCCC1=O [Example 05-75, 3-((2-chloro-5-((3-fluoro-2-methylbenzyl)amino)phenyl)amino)-2-methylcyclohex-2-enone]	1 to 10 µM	160 to 162 °C	< 1 µM
CC1=C(Nc2ccc(NCc3ccccc3C)cc2Cl)CCCC1=O [Example 05-76, 3-((2-chloro-4-((2-methylbenzyl)amino)phenyl)amino)-2-methylcyclohex-2-enone]	> 10 µM	220 to 221 °C	1 to 10 µM
CC1=C(Nc2ccc(NCCc3ccccc3C)cc2Cl)CCCC1=O [Example 05-77, 3-((2-chloro-4-((2-methylphenethyl)amino)phenyl)amino)-2-methyl-cyclohex-2-enone]	1 to 10 µM	160 to 162 °C	1 to 10 µM
CC1=C(Nc2cccc(NCc3ccccc3C)c2Cl)CCCC1=O [Example 05-78, 3-((2-chloro-3-((2-methylbenzyl)amino)phenyl)amino)-2-methylcyclohex-2-enone]	1 to 10 µM	132 to 135 °C	< 1 µM
CC1=C(Nc2cccc(NCCc3ccccc3C)c2Cl)CCCC1=O [Example 05-79, 3-((2-chloro-3-((2-methylphenethyl)amino)phenyl)amino)-2-methylcyclohex-2-enone]	> 10 µM	157 to 160 °C	1 to 10 µM
CC1=C(Nc2cc(Nc3ccccc3C)ccc2Cl)CCCC1=O [Example 05-81, 3-((2-chloro-5-(o-tolylamino)phenyl)amino)-2-methylcyclohex-2-enone]	1 to 10 µM	165 to 168 °C	< 1 µM
CC1=C(Nc2ccc(Nc3ccccc3C)cc2Cl)CCCC1=O [Example 05-82, 3-((2-chloro-4-(o-tolylamino)phenyl)amino)-2-methylcyclohex-2-enone]	> 10 µM	68 to 70 °C	< 1 µM
CC1=C(Nc2cc(NC(=O)/C=C\C(=O)O)ccc2Cl)CCCC1=O [Example 05-83, (Z)-4-((4-chloro-3-((2-methyl-3-oxocyclohex-1-en-1-yl)amino)phenyl)-amino)-4-oxobut-2-enoic acid]	> 10 µM	182 to 185 °C	1 to 10 µM
CC1=C(Nc2ccc(NC(=O)/C=C\C(=O)O)cc2Cl)CCCC1=O [Example 05-84, (Z)-4-((3-chloro-4-((2-methyl-3-oxocyclohex-1-en-1-yl)amino)phenyl)-amino)-4-oxobut-2-enoic acid]	> 10 µM	200 to 202 °C	1 to 10 µM
